Experimental data as given in patent publication US20250101028A1, “HETEROCYCLIC COMPOUNDS, COMPOSITIONS THEREOF, AND METHODS OF TREATMENT THEREWITH” (BeiGene, Ltd., priority 2022, published 2025).

Target: T1, GST-tagged GDP-loaded KRAS G12V (amino acids 1-169) (Homo sapiens, UniProt P01116, G12V)
T1 construct: GST-tagged GDP-loaded KRAS G12V (amino acids 1-169); made in house; host or cells: E. coli
Test: KRAS G12V probe displacement assay (TR-FRET)
Assay type: binding
Conditions: displacement of biotinylated probe 2 from GDP-loaded KRAS G12V
Method in brief: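 GST-tagged GDP-loaded KRAS 1-169 (WT 3 nM; G12V 2 nM final) preincubated 1 h at 24 °C with serially diluted compound in HEPES pH 7.5 buffer, then biotinylated probe added (probe 1 60 nM for WT; probe 2 2.5 nM for G12V), 1 h. Anti-GST-Tb/streptavidin-XL665 TR-FRET 665/620 ratio; IC50 by four-parameter fit.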

T1 sequence (P01116 1-169 isoform P01116-2 G12V): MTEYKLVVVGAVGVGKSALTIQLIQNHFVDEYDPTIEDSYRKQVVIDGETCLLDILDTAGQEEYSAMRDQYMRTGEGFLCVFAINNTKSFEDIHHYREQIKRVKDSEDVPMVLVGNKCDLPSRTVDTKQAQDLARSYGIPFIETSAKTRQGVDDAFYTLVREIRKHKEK

N#CCC1CCN(c2nc(OC[C@@]34CCCN3C[C@H](F)C4)nc3c(F)c(-c4ccc(F)c5sc(N)nc45)c(C(F)(F)F)cc23)CC1 [Example 71, 2-(1-(7-(2-amino-7-fluorobenzo[d]thiazol-4-yl)-8-fluoro-2-(((2R,7aS)-2-fluorotetrahydro-1H-pyrrolizin-7a(5H)-yl)methoxy)-6-(trifluoromethyl)quinazolin-4-yl)piperidin-4-yl)acetonitrile]
IC50: 10 nM

CO[C@H]1C[C@H](Nc2nc(OC[C@@]34CCCN3C[C@H](F)C4)nc3c(F)c(-c4ccc(F)c5sc(N)nc45)c(C(F)(F)F)cc23)C1 [Example 14, 7-fluoro-4-(8-fluoro-2-(((2R,7aS)-2-fluorotetrahydro-1H-pyrrolizin-7a(5H)-yl)methoxy)-4-(((trans)-3-methoxycyclobutyl)amino)-6-(trifluoromethyl)quinazolin-7-yl)benzo[d]thiazol-2-amine]
IC50: 13 nM

Nc1nc2c(-c3c(C(F)(F)F)cc4c(N5CCC6(CC5)CN(CC(F)F)C(=O)O6)nc(OC[C@@]56CCCN5C[C@H](F)C6)nc4c3F)ccc(F)c2s1 [Example 90, 8-(7-(2-amino-7-fluorobenzo[d]thiazol-4-yl)-8-fluoro-2-(((2R,7aS)-2-fluorotetrahydro-1H-pyrrolizin-7a(5H)-yl)methoxy)-6-(trifluoromethyl)quinazolin-4-yl)-3-(2,2-difluoroethyl)-1-oxa-3,8-diazaspiro[4.5]decan-2-one]
IC50: 4.2 nM

CC[C@@H]1CCCN1c1nc(OC[C@@]23CCCN2C[C@H](F)C3)nc2c(F)c(-c3ccc(F)c4sc(N)nc34)c(C(F)(F)F)cc12 [Example 58, 4-(4-((R)-2-ethylpyrrolidin-1-yl)-8-fluoro-2-(((2R,7aS)-2-fluorotetrahydro-1H-pyrrolizin-7a(5H)-yl)methoxy)-6-(trifluoromethyl)quinazolin-7-yl)-7-fluorobenzo[d]thiazol-2-amine]
IC50: 40 nM

Nc1nc2c(-c3c(C(F)(F)F)cc4c(N5CCCCCC5)nc(OC[C@@]56CCCN5C[C@H](F)C6)nc4c3F)ccc(F)c2s1 [Example 81, 4-(4-(azepan-1-yl)-8-fluoro-2-(((2R,7aS)-2-fluorotetrahydro-1H-pyrrolizin-7a(5H)-yl)methoxy)-6-(trifluoromethyl)quinazolin-7-yl)-7-fluorobenzo[d]thiazol-2-amine]
IC50: 4.9 nM

Nc1nc2c(-c3c(C(F)(F)F)cc4c(N[C@H]5C[C@@H](O)C5)nc(OC[C@@]56CCCN5C[C@H](F)C6)nc4c3F)ccc(F)c2s1 [Example 11, cis-3-((7-(2-amino-7-fluorobenzo[d]thiazol-4-yl)-8-fluoro-2-(((2R,7aS)-2-fluorotetrahydro-1H-pyrrolizin-7a(5H)-yl)methoxy)-6-(trifluoromethyl)quinazolin-4-yl)amino)cyclobutan-1-ol]
IC50: 4.4 nM

CC1CC(C#N)CCN1c1nc(OC[C@@]23CCCN2C[C@H](F)C3)nc2c(F)c(-c3ccc(F)c4sc(N)nc34)c(C(F)(F)F)cc12 (relative stereo) [Example 74, 1-(7-(2-amino-7-fluorobenzo[d]thiazol-4-yl)-8-fluoro-2-(((2R,7aS)-2-fluorotetrahydro-1H-pyrrolizin-7a(5H)-yl)methoxy)-6-(trifluoromethyl)quinazolin-4-yl)-trans-2-methylpiperidine-4-carbonitrile]
IC50: 1.9 nM

Nc1nc2c(-c3c(C(F)(F)F)cc4c(N5CC6CC5C6)nc(OC[C@@]56CCCN5C[C@H](F)C6)nc4c3F)ccc(F)c2s1 [Example 62, 4-(4-(2-azabicyclo[2.1.1]hexan-2-yl)-8-fluoro-2-(((2R,7aS)-2-fluorotetrahydro-1H-pyrrolizin-7a(5H)-yl)methoxy)-6-(trifluoromethyl)quinazolin-7-yl)-7-fluorobenzo[d]thiazol-2-amine]
IC50: 22 nM

Nc1nc2c(-c3c(C(F)(F)F)cc4c(N5CC[C@H](O)C5)nc(OC[C@@]56CCCN5C[C@H](F)C6)nc4c3F)ccc(F)c2s1 [Example 64, (3S)-1-(7-(2-amino-7-fluorobenzo[d]thiazol-4-yl)-8-fluoro-2-(((2R,7aS)-2-fluorotetrahydro-1H-pyrrolizin-7a(5H)-yl)methoxy)-6-(trifluoromethyl)quinazolin-4-yl)pyrrolidin-3-ol]
IC50: 4.3 nM

Nc1nc2c(-c3c(C(F)(F)F)cc4c(N5CCC6(CC5)CN(CCO)C(=O)O6)nc(OC[C@@]56CCCN5C[C@H](F)C6)nc4c3F)ccc(F)c2s1 [Example 93, 8-(7-(2-amino-7-fluorobenzo[d]thiazol-4-yl)-8-fluoro-2-(((2R,7aS)-2-fluorotetrahydro-1H-pyrrolizin-7a(5H)-yl)methoxy)-6-(trifluoromethyl)quinazolin-4-yl)-3-(2-hydroxyethyl)-1-oxa-3,8-diazaspiro[4.5]decan-2-one]
IC50: 2.2 nM

Nc1nc2c(-c3c(C(F)(F)F)cc4c(N5CCC6(CC5)CN(CC(F)(F)F)C(=O)O6)nc(OC[C@@]56CCCN5C[C@H](F)C6)nc4c3F)ccc(F)c2s1 [Example 91, 8-(7-(2-amino-7-fluorobenzo[d]thiazol-4-yl)-8-fluoro-2-(((2R,7aS)-2-fluorotetrahydro-1H-pyrrolizin-7a(5H)-yl)methoxy)-6-(trifluoromethyl)quinazolin-4-yl)-3-(2,2,2-trifluoroethyl)-1-oxa-3,8-diazaspiro[4.5]decan-2-one]
IC50: 3.8 nM

Nc1cc(Cl)c(C(F)(F)F)c(-c2ncc3c(N4CCOCC4)nc(OC[C@@]45CCCN4C[C@H](F)C5)nc3c2F)c1 [Example 113, 3-chloro-5-(8-fluoro-2-(((2R,7aS)-2-fluorotetrahydro-1H-pyrrolizin-7a(5H)-yl)methoxy)-4-morpholinopyrido[4,3-d]pyrimidin-7-yl)-4-(trifluoromethyl)aniline]
IC50: 11 nM

Nc1nc2c(-c3c(C(F)(F)F)cc4c(N5CC[C@@H](F)C5)nc(OC[C@@]56CCCN5C[C@H](F)C6)nc4c3F)ccc(F)c2s1 [Example 51, 7-fluoro-4-(8-fluoro-4-((R)-3-fluoropyrrolidin-1-yl)-2-(((2R,7aS)-2-fluorotetrahydro-1H-pyrrolizin-7a(5H)-yl)methoxy)-6-(trifluoromethyl)quinazolin-7-yl)benzo[d]thiazol-2-amine]
IC50: 11 nM

C[C@@]1(O)CCCN(c2nc(OC[C@@]34CCCN3C[C@H](F)C4)nc3c(F)c(-c4ccc(F)c5sc(N)nc45)c(C(F)(F)F)cc23)C1 [Example 80, (3R)-1-(7-(2-amino-7-fluorobenzo[d]thiazol-4-yl)-8-fluoro-2-(((2R,7aS)-2-fluorotetrahydro-1H-pyrrolizin-7a(5H)-yl)methoxy)-6-(trifluoromethyl)quinazolin-4-yl)-3-methylpiperidin-3-ol]
IC50: 17 nM

Nc1nc2c(-c3c(C(F)(F)F)cc4c(N5CC[C@H](CO)C5)nc(OC[C@@]56CCCN5C[C@H](F)C6)nc4c3F)ccc(F)c2s1 [Example 66, ((3S)-1-(7-(2-amino-7-fluorobenzo[d]thiazol-4-yl)-8-fluoro-2-(((2R,7aS)-2-fluorotetrahydro-1H-pyrrolizin-7a(5H)-yl)methoxy)-6-(trifluoromethyl)quinazolin-4-yl)pyrrolidin-3-yl)methanol]
IC50: 7.7 nM

Cc1cc(N)nc(-c2c(Cl)cc3c(N4CCC5(CC4)CN(C)C(=O)O5)nc(OC[C@@]45CCCN4C[C@H](F)C5)nc3c2F)c1C(F)(F)F [Example 106, 8-(7-(6-amino-4-methyl-3-(trifluoromethyl)pyridin-2-yl)-6-chloro-8-fluoro-2-(((2R,7aS)-2-fluorotetrahydro-1H-pyrrolizin-7a(5H)-yl)methoxy)quinazolin-4-yl)-3-methyl-1-oxa-3,8-diazaspiro[4.5]decan-2-one]
IC50: 23 nM

C[C@@H]1COCCN1c1nc(OC[C@@]23CCCN2C[C@H](F)C3)nc2c(F)c(-c3cc(N)cc(Cl)c3C(F)(F)F)ncc12 [Example 115, 3-chloro-5-(8-fluoro-2-(((2R,7aS)-2-fluorotetrahydro-1H-pyrrolizin-7a(5H)-yl)methoxy)-4-((R)-3-methylmorpholino)pyrido[4,3-d]pyrimidin-7-yl)-4-(trifluoromethyl)aniline]
IC50: 6.5 nM

Nc1nc2c(-c3c(C(F)(F)F)cc4c(N[C@H]5C[C@@H](CO)C5)nc(OC[C@@]56CCCN5C[C@H](F)C6)nc4c3F)ccc(F)c2s1 [Example 20, ((cis)-3-((7-(2-amino-7-fluorobenzo[d]thiazol-4-yl)-8-fluoro-2-(((2R,7aS)-2-fluorotetrahydro-1H-pyrrolizin-7a(5H)-yl)methoxy)-6-(trifluoromethyl)quinazolin-4-yl)amino)cyclobutyl)methanol]
IC50: 7.9 nM

COCCN1CC2(CCN(c3nc(OC[C@@]45CCCN4C[C@H](F)C5)nc4c(F)c(-c5ccc(F)c6sc(N)nc56)c(C(F)(F)F)cc34)CC2)OC1=O [Example 94, 8-(7-(2-amino-7-fluorobenzo[d]thiazol-4-yl)-8-fluoro-2-(((2R,7aS)-2-fluorotetrahydro-1H-pyrrolizin-7a(5H)-yl)methoxy)-6-(trifluoromethyl)quinazolin-4-yl)-3-(2-methoxyethyl)-1-oxa-3,8-diazaspiro[4.5]decan-2-one]
IC50: 2.5 nM

Nc1nc2c(-c3c(C(F)(F)F)cc4c(N5CC[C@H](F)C5)nc(OC[C@@]56CCCN5C[C@H](F)C6)nc4c3F)ccc(F)c2s1 [Example 52, 7-fluoro-4-(8-fluoro-4-((S)-3-fluoropyrrolidin-1-yl)-2-(((2R,7aS)-2-fluorotetrahydro-1H-pyrrolizin-7a(5H)-yl)methoxy)-6-(trifluoromethyl)quinazolin-7-yl)benzo[d]thiazol-2-amine]
IC50: 19 nM

C[C@]1(O)CCCN(c2nc(OC[C@@]34CCCN3C[C@H](F)C4)nc3c(F)c(-c4cc(N)cc(Cl)c4C(F)(F)F)ncc23)C1 [Example 129, (S)-1-(7-(5-amino-3-chloro-2-(trifluoromethyl)phenyl)-8-fluoro-2-(((2R,7aS)-2-fluorotetrahydro-1H-pyrrolizin-7a(5H)-yl)methoxy)pyrido[4,3-d]pyrimidin-4-yl)-3-methylpiperidin-3-ol]
IC50: 15 nM
